Measured values published in ChEMBL document CHEMBL1137487, “Synthesis and biological activities of glycosphingolipid analogues from marine sponge Aplysinella rhax” (Bioorg Med Chem Lett, 2007).
Activity calls are given as the source filed them. The rule behind the calls is not given here.

Test system: J774.1
Assay: Inhibition of LPS-stimulated nitric oxide production in J774.1 cells
Assay type: functional, cell-based
Settings: Mus musculus

Question: `CC(=O)N[C@H]1[C@H](O[C@H]2[C@H](O[C@H]3O[C@H](C)[C@H](O)[C@H](O)[C@H]3O)[C@@H](NC(C)=O)[C@H](OCC[Si](C)(C)C)O[C@@H]2CO)O[C@H](CO)[C@H](O)[C@@H]1O` was tested. Which Activity did it give?
Answer: Active

Question: Which Activity does the source give for `CCCCCCCCCCCCCCC(CCCCCCCCCCCCCC)CO[C@@H]1O[C@H](CO)[C@@H](O[C@@H]2O[C@H](CO)[C@H](O)[C@H](O)[C@H]2NC(C)=O)[C@H](O[C@H]2O[C@@H](C)[C@@H](O)[C@@H](O)[C@@H]2O)[C@H]1NC(C)=O` (stereo in doubt) here?
Answer: Active

Question: `CCCCCCCCCCCCCCC(CCCCCCCCCCCCCC)CO[C@@H]1O[C@H](CO)[C@@H](O[C@@H]2O[C@H](CO)[C@H](O)[C@H](O)[C@H]2NC(C)=O)[C@H](O[C@H]2O[C@H](C)[C@H](O)[C@H](O)[C@H]2O)[C@H]1NC(C)=O` was tested. Which Activity did it give?
Answer: Active

Question: For `CCCCCCCCCCCCCCC(CCCCCCCCCCCCCC)CO[C@@H]1O[C@H](CO)[C@@H](O[C@@H]2O[C@H](CO)[C@H](O)[C@H](O)[C@H]2O)[C@H](O[C@H]2O[C@H](C)[C@H](O)[C@H](O)[C@H]2O)[C@H]1NC(C)=O`, which Activity is on record?
Answer: Active
